Data from ChEMBL document CHEMBL1201862, “PubChem BioAssay data set” (2004).
Activity calls are given as the source filed them.

Assays:
[1] = HPDE-C7 pancreatic duct cell viability loss – fluorescence, HTS (AID 430); type: functional, cell-based; conditions: Homo sapiens
[2] = viability loss of HPDE-C7K cells – cell-based, fluorescence, HTS, primary screen (AID 431); type: functional; conditions: Homo sapiens
[3] = Luminescence Cell-Based Dose Retest to Confirm Inhibitors of Cancer Stem Cells. [Related pubchem assays (depositor defined):AID2717, AID2721]; type: functional; conditions: Homo sapiens
cells = type: functional
fMet-Leu-Phe receptor = target: T1, fMet-Leu-Phe receptor (Homo sapiens, UniProt P21462); test: formyl peptide receptor binders – dose response (AID 519); type: functional
T1 sequence (P21462 whole entry): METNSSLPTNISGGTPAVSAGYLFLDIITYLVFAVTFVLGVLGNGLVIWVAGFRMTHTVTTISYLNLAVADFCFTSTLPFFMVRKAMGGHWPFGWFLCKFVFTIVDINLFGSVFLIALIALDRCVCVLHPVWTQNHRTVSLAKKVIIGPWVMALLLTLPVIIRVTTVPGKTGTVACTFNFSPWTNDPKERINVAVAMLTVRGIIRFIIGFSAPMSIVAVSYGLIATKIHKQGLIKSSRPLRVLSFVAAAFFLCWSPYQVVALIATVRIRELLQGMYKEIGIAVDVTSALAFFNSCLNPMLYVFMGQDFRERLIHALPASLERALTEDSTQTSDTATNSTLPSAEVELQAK

Nonstructural protein 1 = Nonstructural protein 1 (Influenza A virus, UniProt Q194T2); type: functional, Influenza A virus (A/California/07/2009(H1N1))
Cytochrome P450 2C19 = Cytochrome P450 2C19 (Homo sapiens, UniProt P33261); test: Cytochrome panel assay with activity outcomes. Panel member name: p450-cyp2c19 Compounds with AC50 equal or less than 10 uM are considered active; type: functional; conditions: read-out: AC50
Cytochrome P450 3A4 [4] = target: T2, Cytochrome P450 3A4 (Homo sapiens, UniProt P08684);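 further: CYP3A4 tested as one member of a cytochrome P450 panel screen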
Cytochrome P450 2D6 = Cytochrome P450 2D6 (Homo sapiens, UniProt P10635);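 further: CYP2D6 member of a cytochrome P450 panel assay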
Cytochrome P450 1A2 = target: T3, Cytochrome P450 1A2 (Homo sapiens, UniProt P05177);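 further: PubChem cytochrome P450 panel assay, CYP1A2 panel member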
T3 sequence (P05177 whole entry): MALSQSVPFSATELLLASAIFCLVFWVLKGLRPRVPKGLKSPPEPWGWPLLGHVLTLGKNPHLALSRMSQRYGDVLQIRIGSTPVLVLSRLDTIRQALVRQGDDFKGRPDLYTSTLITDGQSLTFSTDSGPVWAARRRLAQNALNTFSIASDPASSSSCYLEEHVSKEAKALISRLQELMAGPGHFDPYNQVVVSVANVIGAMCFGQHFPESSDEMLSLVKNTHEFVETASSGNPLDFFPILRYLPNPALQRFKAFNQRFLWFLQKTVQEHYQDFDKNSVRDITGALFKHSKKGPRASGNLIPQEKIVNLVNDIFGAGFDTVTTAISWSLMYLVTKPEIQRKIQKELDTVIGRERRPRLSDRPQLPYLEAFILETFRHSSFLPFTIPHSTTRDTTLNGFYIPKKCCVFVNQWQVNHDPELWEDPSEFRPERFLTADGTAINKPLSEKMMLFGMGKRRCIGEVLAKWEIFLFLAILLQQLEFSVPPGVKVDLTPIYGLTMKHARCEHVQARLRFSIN

Cytochrome P450 3A4 [5] = target: T2, Cytochrome P450 3A4; remark: listed apart in the source
[6] = target: T4, RNA-binding protein pos-1 (Caenorhabditis elegans, UniProt G5EF15); test: disruptors of C. elegans POS-1 RNA interaction – biochemical, fluorescence polarization, dose response (AID 1964);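 further: purified POS-1 fused to maltose binding protein made in E. coli; potency of compounds blocking POS-1 binding to fluorescent RNA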
T4 sequence (G5EF15 whole entry): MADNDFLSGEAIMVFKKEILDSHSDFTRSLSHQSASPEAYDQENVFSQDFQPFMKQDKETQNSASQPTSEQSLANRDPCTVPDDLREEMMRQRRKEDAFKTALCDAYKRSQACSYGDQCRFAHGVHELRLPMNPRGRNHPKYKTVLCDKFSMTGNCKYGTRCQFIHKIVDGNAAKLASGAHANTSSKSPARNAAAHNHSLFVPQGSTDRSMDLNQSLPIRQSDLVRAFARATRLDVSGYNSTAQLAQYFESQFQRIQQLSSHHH

[7] = target: T5, Zinc finger protein mex-5 (Caenorhabditis elegans, UniProt Q9XUB2); test: potency of MEX-5 RNA-binding blockers – biochemical, C. elegans, fluorescence polarization, dose response (AID 1960)
T5 sequence (Q9XUB2 whole entry): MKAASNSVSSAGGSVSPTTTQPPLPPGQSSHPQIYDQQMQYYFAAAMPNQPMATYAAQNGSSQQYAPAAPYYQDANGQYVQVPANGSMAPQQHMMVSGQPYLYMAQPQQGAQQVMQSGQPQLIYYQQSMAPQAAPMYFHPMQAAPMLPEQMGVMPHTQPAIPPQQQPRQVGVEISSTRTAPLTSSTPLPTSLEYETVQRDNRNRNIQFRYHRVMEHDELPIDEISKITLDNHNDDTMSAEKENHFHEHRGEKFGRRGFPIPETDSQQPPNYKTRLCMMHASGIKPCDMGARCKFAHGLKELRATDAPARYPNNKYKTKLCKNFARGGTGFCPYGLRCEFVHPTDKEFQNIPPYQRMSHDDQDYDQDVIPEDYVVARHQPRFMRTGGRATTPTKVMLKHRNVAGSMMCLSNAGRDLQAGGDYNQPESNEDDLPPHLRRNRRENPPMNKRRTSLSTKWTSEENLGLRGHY

Protein Wnt-3a = Protein Wnt-3a (Mus musculus, UniProt P27467); test: antagonism of Wnt3a pathway luciferase reporter – Wnt-LIGHT cells, luminescence, selectivity assay for Gli-SUFU antagonist project, dose response (AID 651570); type: functional; conditions: read-out: IC50_Mean;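 further: Wnt-LIGHT reporter cells stimulated with conditioned medium from Wnt3a-producing cells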
BJ [8] = test: BJ-TERT fibroblast viability loss – cell-based, RAS-independent, luminescence, dose response (AID 1933); type: functional; conditions: Homo sapiens
BJ [9] = test: cells; type: functional, cell-based; conditions: Homo sapiens
BJ [10] = test: BJ-TERT-LT-ST fibroblast viability loss – cell-based, RAS-independent, luminescence, dose response (AID 1935); type: functional; conditions: Homo sapiens;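 further: BJ fibroblasts immortalized with TERT plus LT and ST oncogenes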
[11] = DRD fibroblast viability loss – cell-based, non-viral oncogenic, luminescence, dose response (AID 1934); type: functional; conditions: Homo sapiens
BJ [12] = test: growth inhibition of engineered Ras-driven BJ cells – cell-based, alamar blue fluorescence, cherrypicked samples, dose response (AID 2631); type: functional; conditions: Homo sapiens;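 further: confirmatory dose-response assay in RAS-dependent BJ fibroblasts engineered with TERT, LT and ST, with cytotoxicity read by fluorescence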
Cytochrome P450 2C9 = Cytochrome P450 2C9 (Homo sapiens, UniProt P11712)
[13] = system: Streptococcus sp. 'group A'; test: Streptococcus pyogenes SK(-)GAS viability under kanamycin – luminescence, BacTiterGlo, confirmation, counter-screen for streptokinase expression inhibitor project, dose response (AID 1900); type: functional, organism-based
Streptokinase A = target: T6, Streptokinase A (Streptococcus pyogenes serotype M1, UniProt P10520); test: viability-normalized secreted streptokinase activity reduction – plasminogen activation absorbance, OD405, dose response (AID 1914); type: functional, Streptococcus pyogenes M1 GAS;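 further: secreted streptokinase activity via plasminogen activation per viability signal from cell pellet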
T6 sequence (P10520 whole entry): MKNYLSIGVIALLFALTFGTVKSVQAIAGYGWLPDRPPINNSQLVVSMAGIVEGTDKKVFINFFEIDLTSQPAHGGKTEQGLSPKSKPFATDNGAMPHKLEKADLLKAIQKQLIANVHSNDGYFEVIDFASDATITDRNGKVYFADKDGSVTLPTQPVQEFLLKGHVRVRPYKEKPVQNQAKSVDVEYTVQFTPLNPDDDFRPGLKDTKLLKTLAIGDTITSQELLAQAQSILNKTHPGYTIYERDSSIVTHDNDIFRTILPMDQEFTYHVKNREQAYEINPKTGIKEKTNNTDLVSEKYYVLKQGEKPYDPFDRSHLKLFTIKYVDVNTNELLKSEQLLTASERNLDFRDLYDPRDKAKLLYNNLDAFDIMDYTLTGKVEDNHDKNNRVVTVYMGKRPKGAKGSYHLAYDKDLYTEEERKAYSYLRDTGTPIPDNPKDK

Streptococcus = test: GAS UMAA2166 growth inhibition – luminescence, BacTiterGlo, counter-screen for streptokinase expression inhibitor project, dose response (AID 1915); type: functional, organism-based;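 further: potency for reduction of bacterial viability or growth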
Paired box protein Pax-8 = Paired box protein Pax-8 (Homo sapiens, UniProt Q06710); test: PAX8 transcriptional activity inhibition in RMG-I – RMG-I cells, luciferase, cherry-pick, dose response (AID 687027); type: functional, cell-based;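 further: luciferase reporter driven by Pax8 target thyroperoxidase promoter measured by SteadyGlo luminescence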
[14] = target: Disintegrin and metalloproteinase domain-containing protein 17 (Homo sapiens, UniProt P78536); test: inhibition of ADAM17 substrate cleavage – biochemical, quenched FRET substrate, counter-screen for ADAM10 exosite inhibitor project, dose response (AID 743253)
[15] = Luminescence Cell-Based Dose Confirmation HTS to Identify Activators of 5'UTR Stem-Loop Driven Alpha-Synuclein mRNA Translation in H4 Neuroglioblastoma Cells. [Related pubchem assays: 1829 (Project Summary), 1814 (Primary HTS)]; type: functional
[16] = Luminescence Cell-Based Dose Response HTS to Identify Activators of Luciferase Translation or Activity in H4 […] Cells. [Related pubchem assays: 1829 (Project Summary), 1814 (Primary HTS)]; type: functional
H4 = test: Luminescence Cell-Based Dose Response HTS to Identify Activators of 5'UTR Stem-Loop Driven Prion Protein mRNA Translation in H4 Neuroglioblastoma Cells. [Related pubchem assays: 1829 (Project Summary), 1814 (Primary HTS)]; type: functional; conditions: Homo sapiens
[17] = target: Voltage-gated N-type calcium channel alpha-1B subunit/Amyloid beta A4 precursor protein-binding family A member 1 (Homo sapiens, UniProt Q00975+Q02410); type: protein assay

Protein Wnt-3a, sequence (P27467 whole entry): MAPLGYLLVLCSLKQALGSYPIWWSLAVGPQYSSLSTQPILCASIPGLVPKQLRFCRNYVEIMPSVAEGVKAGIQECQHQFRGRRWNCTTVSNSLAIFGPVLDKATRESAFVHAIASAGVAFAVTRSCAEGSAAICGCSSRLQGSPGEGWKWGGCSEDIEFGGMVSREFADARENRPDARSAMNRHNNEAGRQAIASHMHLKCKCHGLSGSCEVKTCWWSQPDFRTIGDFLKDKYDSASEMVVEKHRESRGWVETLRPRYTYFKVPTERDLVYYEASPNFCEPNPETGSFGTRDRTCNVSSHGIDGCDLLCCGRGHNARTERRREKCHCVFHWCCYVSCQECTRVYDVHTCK
T2 sequence (P08684 whole entry): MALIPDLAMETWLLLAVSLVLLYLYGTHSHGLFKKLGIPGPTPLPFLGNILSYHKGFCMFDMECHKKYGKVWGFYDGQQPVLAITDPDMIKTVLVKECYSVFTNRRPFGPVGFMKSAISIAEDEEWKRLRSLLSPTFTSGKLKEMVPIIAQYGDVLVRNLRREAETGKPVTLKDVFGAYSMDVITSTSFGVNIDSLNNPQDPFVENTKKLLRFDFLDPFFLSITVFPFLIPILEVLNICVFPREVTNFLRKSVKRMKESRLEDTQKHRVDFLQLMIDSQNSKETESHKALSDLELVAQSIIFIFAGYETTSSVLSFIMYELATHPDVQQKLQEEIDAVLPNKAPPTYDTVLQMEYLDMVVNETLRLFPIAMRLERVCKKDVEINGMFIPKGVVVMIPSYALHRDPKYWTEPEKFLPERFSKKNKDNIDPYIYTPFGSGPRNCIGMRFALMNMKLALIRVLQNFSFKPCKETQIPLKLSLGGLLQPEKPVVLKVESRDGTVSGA
Cytochrome P450 2D6, sequence (P10635 whole entry): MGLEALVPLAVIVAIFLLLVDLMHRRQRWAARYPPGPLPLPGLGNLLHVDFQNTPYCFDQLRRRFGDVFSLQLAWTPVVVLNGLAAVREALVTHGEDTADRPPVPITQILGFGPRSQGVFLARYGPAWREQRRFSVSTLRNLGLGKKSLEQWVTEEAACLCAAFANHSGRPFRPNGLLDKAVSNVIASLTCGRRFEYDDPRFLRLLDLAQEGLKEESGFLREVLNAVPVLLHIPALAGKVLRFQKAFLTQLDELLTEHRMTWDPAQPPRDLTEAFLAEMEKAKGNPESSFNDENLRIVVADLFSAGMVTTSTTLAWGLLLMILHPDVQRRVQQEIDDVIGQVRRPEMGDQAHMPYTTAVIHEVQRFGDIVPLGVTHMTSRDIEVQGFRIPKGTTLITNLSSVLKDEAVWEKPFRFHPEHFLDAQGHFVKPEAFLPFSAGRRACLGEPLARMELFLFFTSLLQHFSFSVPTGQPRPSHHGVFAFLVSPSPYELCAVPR
Paired box protein Pax-8, sequence (Q06710 whole entry, the tested form may be a part): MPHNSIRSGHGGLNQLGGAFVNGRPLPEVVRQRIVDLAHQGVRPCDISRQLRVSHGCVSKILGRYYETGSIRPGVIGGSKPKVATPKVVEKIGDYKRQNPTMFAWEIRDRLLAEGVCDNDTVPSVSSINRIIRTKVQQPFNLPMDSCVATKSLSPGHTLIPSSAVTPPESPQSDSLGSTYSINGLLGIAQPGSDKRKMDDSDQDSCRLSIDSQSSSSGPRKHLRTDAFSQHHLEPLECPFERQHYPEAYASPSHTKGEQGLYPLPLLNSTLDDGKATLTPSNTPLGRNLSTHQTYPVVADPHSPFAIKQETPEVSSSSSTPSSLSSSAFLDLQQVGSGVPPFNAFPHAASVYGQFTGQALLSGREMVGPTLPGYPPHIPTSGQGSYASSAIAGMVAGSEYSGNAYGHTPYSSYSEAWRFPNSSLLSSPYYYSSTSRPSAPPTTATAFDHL
Disintegrin and metalloproteinase domain-containing protein 17, sequence (P78536 whole entry, the tested form may be a part): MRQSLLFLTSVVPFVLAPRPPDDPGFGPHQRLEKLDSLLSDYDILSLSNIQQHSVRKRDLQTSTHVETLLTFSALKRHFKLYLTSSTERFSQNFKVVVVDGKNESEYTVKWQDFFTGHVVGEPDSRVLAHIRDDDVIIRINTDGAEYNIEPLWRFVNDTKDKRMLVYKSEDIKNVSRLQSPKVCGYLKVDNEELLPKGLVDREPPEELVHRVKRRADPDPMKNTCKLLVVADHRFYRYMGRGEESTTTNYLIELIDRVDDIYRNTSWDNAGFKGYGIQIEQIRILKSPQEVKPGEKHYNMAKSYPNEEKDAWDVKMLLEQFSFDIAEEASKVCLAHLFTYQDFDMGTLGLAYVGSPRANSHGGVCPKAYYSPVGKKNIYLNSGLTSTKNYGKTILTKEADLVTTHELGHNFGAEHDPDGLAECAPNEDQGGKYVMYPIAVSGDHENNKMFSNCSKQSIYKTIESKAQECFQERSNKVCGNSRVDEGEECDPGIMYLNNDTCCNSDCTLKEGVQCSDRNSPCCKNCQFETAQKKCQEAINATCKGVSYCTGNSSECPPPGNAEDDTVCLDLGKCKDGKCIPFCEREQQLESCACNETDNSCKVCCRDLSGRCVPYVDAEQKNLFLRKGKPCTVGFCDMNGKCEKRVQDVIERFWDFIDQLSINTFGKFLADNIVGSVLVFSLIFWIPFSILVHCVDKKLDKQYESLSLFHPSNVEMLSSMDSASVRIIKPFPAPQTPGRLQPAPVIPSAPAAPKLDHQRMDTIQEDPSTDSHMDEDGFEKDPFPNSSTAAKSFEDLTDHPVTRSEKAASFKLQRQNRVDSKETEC
Cytochrome P450 2C19, sequence (P33261 whole entry): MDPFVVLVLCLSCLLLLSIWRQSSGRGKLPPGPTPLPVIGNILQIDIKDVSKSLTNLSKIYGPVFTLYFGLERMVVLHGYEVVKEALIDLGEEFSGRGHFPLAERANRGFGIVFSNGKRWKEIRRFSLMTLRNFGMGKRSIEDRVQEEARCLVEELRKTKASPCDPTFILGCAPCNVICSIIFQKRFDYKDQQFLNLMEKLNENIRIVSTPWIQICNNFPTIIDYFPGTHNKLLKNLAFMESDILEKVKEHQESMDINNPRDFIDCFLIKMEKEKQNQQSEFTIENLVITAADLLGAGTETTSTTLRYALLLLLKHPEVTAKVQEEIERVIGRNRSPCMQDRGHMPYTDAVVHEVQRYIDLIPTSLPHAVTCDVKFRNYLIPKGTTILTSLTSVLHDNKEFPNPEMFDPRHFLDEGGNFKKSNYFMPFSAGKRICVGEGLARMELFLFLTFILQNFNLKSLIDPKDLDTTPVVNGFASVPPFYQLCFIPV
Cytochrome P450 2C9, sequence (P11712 whole entry): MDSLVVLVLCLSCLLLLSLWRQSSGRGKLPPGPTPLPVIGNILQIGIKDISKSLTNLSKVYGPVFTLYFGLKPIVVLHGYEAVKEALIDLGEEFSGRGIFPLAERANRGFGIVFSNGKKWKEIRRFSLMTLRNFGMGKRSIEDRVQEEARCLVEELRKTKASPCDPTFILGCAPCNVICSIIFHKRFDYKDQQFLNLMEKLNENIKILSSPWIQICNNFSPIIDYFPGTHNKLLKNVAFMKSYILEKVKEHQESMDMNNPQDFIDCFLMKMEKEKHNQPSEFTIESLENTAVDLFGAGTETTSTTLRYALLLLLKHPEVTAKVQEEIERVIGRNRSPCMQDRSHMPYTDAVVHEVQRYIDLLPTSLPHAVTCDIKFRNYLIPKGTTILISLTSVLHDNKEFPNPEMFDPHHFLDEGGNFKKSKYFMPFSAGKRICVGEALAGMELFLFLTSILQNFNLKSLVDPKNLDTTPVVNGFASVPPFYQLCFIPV
Nonstructural protein 1, sequence (Q194T2 whole entry): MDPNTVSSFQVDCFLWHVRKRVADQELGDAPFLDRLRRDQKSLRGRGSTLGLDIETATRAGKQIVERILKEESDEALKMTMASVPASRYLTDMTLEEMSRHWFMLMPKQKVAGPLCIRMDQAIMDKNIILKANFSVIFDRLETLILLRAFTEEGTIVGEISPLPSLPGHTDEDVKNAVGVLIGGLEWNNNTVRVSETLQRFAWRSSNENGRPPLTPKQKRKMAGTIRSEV

N#CC1=C(SCC(=O)c2ccc(Br)cc2)N=C2CCCC(O)=C2C1c1ccco1 (stereo unspecified)
EC50 [1]: 4.34 µM (active)
EC50 [2]: 5.58 µM (active)
AC50 [3]: 2.13 µM (active)

COC(=O)COc1ccc2c(=O)c(Oc3ccccc3)c(C)oc2c1
IC50 (cells): 2.94 µM (active)
Ki (fMet-Leu-Phe receptor): > 66.7 µM (inactive)

CCN1C(=O)/C(=C2\SC(=S)N(CCCOC)C2=O)c2ccccc21
IC50 (Nonstructural protein 1): 62.7 µM (active)
AC50 (Cytochrome P450 2C19): 11.2 µM (inconclusive)
Ki (fMet-Leu-Phe receptor): > 66.7 µM (inactive)
AC50 (Cytochrome P450 3A4 [4]): 3.55 µM (inconclusive)

Cc1ccc(Cl)cc1N1CCN(C(=O)c2ccc(NS(=O)(=O)c3c(C)noc3C)cc2)CC1
EC50 [1]: 13.2 µM (active)
EC50 [2]: 16.7 µM (active)

CN1CCN(c2ncc3nc(-c4ccc(Cl)cc4)c(=O)n(Cc4ccc(F)cc4)c3n2)CC1
AC50 (Cytochrome P450 2D6): 39.8 µM (inconclusive)
AC50 (Cytochrome P450 1A2): 31.6 µM (inconclusive)
AC50 (Cytochrome P450 3A4 [5]): inconclusive

C=CCOc1ccc(C2C(C(=O)c3cccs3)=C(O)C(=O)N2c2nnc(C)s2)cc1 (stereo unspecified)
EC50 [6]: 10.8 µM (inconclusive)
EC50 [7]: 3.06 µM (active)
Ki (fMet-Leu-Phe receptor): 40.5 µM (inactive)

CCOc1cccc(C(=O)C2=C(O)C(=O)N(CCOC)C2c2ccc(C)o2)c1 (stereo unspecified)
Ki (fMet-Leu-Phe receptor): 13.5 µM (active)

CCOC(=O)N1CCN(C(=O)c2ccc(CSc3ccc(Cl)cc3)cc2)CC1
IC50 (Protein Wnt-3a): 15.6 µM (active)

CCC1(C)Nc2ccccc2C(=O)N1O (stereo unspecified)
EC50 [1]: 17.1 µM (active)
EC50 [2]: > 20 µM (not active)

CC(C)C[C@H]1CN=C(N(C)C)N1CCCCc1ccccc1
IC50 (Protein Wnt-3a): 11.7 µM (active)

COc1cc(OC)c(C2=NOC(C(=O)NCc3cccs3)C2)cc1Cl (stereo unspecified)
EC50 (BJ [8]): > 150 µM (not active)
EC50 (BJ [9]): 63.7 µM (active)
EC50 (BJ [10]): 32 µM (active)
EC50 [11]: 17.7 µM (inconclusive)
EC50 (BJ [12]): 108 µM (active)

CC(C)(C)c1ccc(-c2c(C#N)c(N)nc3c2CCCC3)s1
AC50 (Cytochrome P450 2C9): 7.08 µM (inconclusive)
AC50 (Cytochrome P450 3A4 [5]): inconclusive

O=C(c1cnc(-c2ccccc2)s1)c1ccc(Cl)cc1Cl
EC50 [13]: 16.2 µM (active)
EC50 (Streptokinase A): 33.7 µM (active)
EC50 (Streptococcus): > 150 µM (not active)
AC50 (Cytochrome P450 2D6): 22.4 µM (inconclusive)
AC50 (Cytochrome P450 3A4 [5]): inconclusive

O=c1[nH]c2ccccc2n1C1CCN(C(c2ccccc2OC(F)(F)F)c2nnnn2-c2ccc3c(c2)OCCO3)CC1 (stereo unspecified)
AC50 (Paired box protein Pax-8): 4.52 µM (active)
IC50 [14]: > 69.5 µM (inactive)

CCOC(=O)C1=C(N)n2c(s/c(=C\c3ccco3)c2=O)=C(C(=O)OCC)C1c1ccco1 (stereo unspecified)
EC50 [15]: > 120 µM (not active)
EC50 [16]: > 120 µM (not active)
EC50 (H4): > 120 µM (not active)
EC50 [1]: 1.47 µM (active)
EC50 [2]: 1.19 µM (active)
AC50 (Cytochrome P450 3A4 [4]): 28.2 µM (inconclusive)

O=C(N[C@@H]1C/C=C\C[C@@H](CC(=O)N(CCO)Cc2ccccc2)C(=O)NCCOC1=O)OCC1c2ccccc2-c2ccccc21
IC50 (Protein Wnt-3a): 24.2 µM (inactive)

CC(=O)Nc1ccc(/C=N/Nc2nc3ccccc3[nH]2)cc1
EC50 (BJ [8]): > 150 µM (not active)
EC50 (BJ [9]): 5.82 µM (active)
EC50 (BJ [10]): > 150 µM (inconclusive)
EC50 [11]: > 150 µM (inconclusive)
EC50 (BJ [12]): > 133 µM (inactive)

NS(=O)(=O)c1ccc(N/N=C/c2ccc3c(c2)OCO3)c([N+](=O)[O-])c1
IC50 [17]: 3.59 µM (active)

CCS(=O)(=O)N(C)[C@@H]1c2cc(C#N)ccc2OC(C)(C)[C@H]1O
AC50 (Cytochrome P450 3A4 [4]): 15.8 µM (inconclusive)
AC50 (Cytochrome P450 3A4 [5]): 15.8 µM (inconclusive)
